The source of these data is US20090018136A1, “METHODS AND COMPOSITIONS FOR THE TREATMENT OF VASCULAR DISEASE” (priority 2005, published 2009).

Data set [1] relates to hypertensive patients. In words: Study 1: blood pressure and heart rate during 8 weeks of oral BH4. The data set is classed as in vivo, human. How it is done: Prior studies have used parenteral infusion of BH4 or a single oral dose; thus it was not known whether long-term oral BH4 over a period of days to weeks would result in a sustained improvement in endothelial dysfunction. […] Two studies were conducted to investigate the duration of action of oral BH4 and the response of hypertensive subjects to different doses of BH4. […] Patients were continued on their current anti-hypertensive therapy which remained unchanged. […] BH4 powder was obtained from Schircks Laboratories (Jona, Switzerland). BH4 when administered with vitamin C was compounded with vitamin C at a ratio of 1 mg of vitamin C/1 mg BH4 into appropriate sized capsules. Subjects were advised to keep the pills in a freezer or refrigerator. Eight subjects were recruited, 3 male, mean age 60.5±10.9 years. Subjects were assigned to one of two groups. One group received BH4 10 mg/kg/day (n=4) and the other group received 5 mg/kg/day (n=4) given in two divided doses orally for 8 weeks. These dosages were based on dosing of BH4 used in phenylketonuria. Weekly BP measurements were made throughout the treatment period, and at one week and 6 weeks after discontinuation. Mean blood pressure was calculated as: (SBP+2×DBP)/3. For both study 1 and study 2, the primary end point after statistical analysis was a reduction of systolic, mean and diastolic BP during BH4 therapy. Secondary end points included improvement of endothelial function as FMD. Linear mixed effects models for repeated measures data were used to analyze change in BP from baseline to end of treatment period and differences in change between 100 mg and 200 mg dose groups. A quadratic term for week was included in the model to account for non-linear trends over the treatment period. Dose, week and week squared were the main effect terms in the model; dose by week and dose by week squared were the interaction terms in the model. Significant interaction terms indicate a difference in the pattern of change between the two dose groups. FMD data was analyzed using the two-tailed student t-test.

Data set [2] deals with hypertensive patients. In words: Study 2: dose-response of oral BH4 on blood pressure and heart rate, after 2-week vitamin C run-in. Type of data set: in vivo, human. As for the experimental part: Prior studies have used parenteral infusion of BH4 or a single oral dose; thus it was not known whether long-term oral BH4 over a period of days to weeks would result in a sustained improvement in endothelial dysfunction. […] Two studies were conducted to investigate the duration of action of oral BH4 and the response of hypertensive subjects to different doses of BH4. […] Patients were continued on their current anti-hypertensive therapy which remained unchanged. […] BH4 powder was obtained from Schircks Laboratories (Jona, Switzerland). BH4 when administered with vitamin C was compounded with vitamin C at a ratio of 1 mg of vitamin C/1 mg BH4 into appropriate sized capsules. Subjects were advised to keep the pills in a freezer or refrigerator. For both study 1 and study 2, the primary end point after statistical analysis was a reduction of systolic, mean and diastolic BP during BH4 therapy. Secondary end points included improvement of endothelial function as FMD. Linear mixed effects models for repeated measures data were used to analyze change in BP from baseline to end of treatment period and differences in change between 100 mg and 200 mg dose groups. A quadratic term for week was included in the model to account for non-linear trends over the treatment period. Dose, week and week squared were the main effect terms in the model; dose by week and dose by week squared were the interaction terms in the model. Significant interaction terms indicate a difference in the pattern of change between the two dose groups. FMD data was analyzed using the two-tailed student t-test. […] Of the 20 subjects who qualified for participation, 4 were excluded during the run-in phase because of inability to return for follow-up appointments. There were 6 male subjects, mean age 59.5±8.3 years. Eight subjects received 200 mg b.i.d (twice daily) of oral BH4 and 8 received 100 mg b.i.d. of oral BH4. […] Because BH4 was compounded with vitamin C in a 1:1 ratio, all subjects received vitamin C, at their assigned BH4 dose, twice a day during the first 2-week period. After this 2-week run-in period, subjects received BH4 only at their assigned dosage for the next 4 weeks. Weekly heart rate and BP measurements were made during the run-in period and treatment period. Mean blood pressure was calculated as: (SBP+2×DBP)/3. BH4 was then stopped and follow-up was performed at 1 and 4 weeks after discontinuation where BP and heart rate measurements were made. Routine chemistries and LFT's were drawn prior to initiation of medication, at the end of BH4 therapy and one month after discontinuation of BH4.

Data set [3] has as its system hypertensive patients. The data set can be described thus: Adverse events in Study 1 and Study 2 of oral BH4. The data set is classed as in vivo, human. The note with it: either study. An excerpt: Subjects between the ages of 18 and 75 years were recruited if they had uncontrolled hypertension on traditional stable anti-hypertensive therapy (BP≧135/85), or newly diagnosed hypertension (BP≧140/90). Patients were continued on their current anti-hypertensive therapy which remained unchanged. The criteria for exclusion were: female subjects with childbearing potential, history of recently symptomatic coronary or peripheral vascular disease, known secondary causes for hypertension, severe uncontrolled hypertension (BP>180 mmHg systolic and/or 110 mmHg diastolic), severe co-morbid conditions which would limit life expectancy to less than 6 months, renal or hepatic dysfunction, alteration of any concomitant anti-hypertensive therapy within the last 6 weeks, and any bleeding disorders. BH4 powder was obtained from Schircks Laboratories (Jona, Switzerland). BH4 when administered with vitamin C was compounded with vitamin C at a ratio of 1 mg of vitamin C/1 mg BH4 into appropriate sized capsules. Subjects were advised to keep the pills in a freezer or refrigerator.
Of the 20 subjects who qualified for participation, 4 were excluded during the run-in phase because of inability to return for follow-up appointments. There were 6 male subjects, mean age 59.5±8.3 years. […] Mean blood pressure was calculated as: (SBP+2×DBP)/3. […]

Data set [4] concerns forearm blood flow. Conditions: patients with diabetes or hypercholesterolemia but not normal subjects; cited from earlier work.

For `C[C@H](O)[C@H](O)[C@H]1CNc2nc(N)[nH]c(=O)c2N1` [BH4, tetrahydrobiopterin], in data set [1] (Study 1), the “change in diastolic BP” value is “did not reach statistical significance”; the “change in heart rate with BH4” value is given as “no significant change”; the “differences between the 5 mg/kg and 10 mg/kg doses of BH4” value was “no statistically significant differences”. Also, the “BP after discontinuation of therapy” value in data set [1] (Study 1, 6 weeks after discontinuation, p=ns compared to baseline) was “returned toward pre-treatment levels”. Also, the “systolic BP lower by a mean of” value in data set [1] (Study 1, after 3 weeks, p=0.004) came out at 13±9 mmHg. Also, the “systolic BP lower by a mean of” value in data set [1] (Study 1, after 5 weeks, p=0.04, persisted for the 8 weeks of treatment) was found to be 15±15 mmHg. Further, the “reduction in systolic BP with BH4” value in data set [1] (Study 1, combined group (5 and 10 mg/kg/day oral, two divided doses, 8 weeks), p=0.005 quadratic trend) is recorded as “significant reduction”. Further, the “reduction in mean arterial BP with BH4” value in data set [1] (Study 1, combined group, 8 weeks, p=0.01) is listed as “significant reduction”. Also, the “duration for which BP reduction was sustained” value in data set [1] (continuous therapy, without tachyphylaxis) was “up to 8 weeks”. Moreover, the “change in BP” value in data set [2] (Study 2, 100 mg b.i.d. of BH4) was “No statistically significant change”. In data set [2] (Study 2, 200 mg b.i.d. oral BH4, 4 weeks, p=0.03), the “decrease in systolic BP” value is recorded as “significant decrease”. For the same compound, in data set [2] (Study 2, 200 mg b.i.d. oral BH4, 4 weeks, p=0.04 by linear trend analysis), the “decrease in mean BP” value is recorded as “significant decrease”. Also, the “BP after discontinuation of BH4” value in data set [2] (Study 2, 200 mg b.i.d., 4 weeks after discontinuation) is reported as “returned to baseline levels”. For the same compound, in data set [2] (Study 2, 200 mg b.i.d., a week after termination), the “BP after termination of therapy” value is given as “remained lower”. For the same compound, the “systolic BP mean lowering at nadir” value in data set [2] (Study 2, 200 mg b.i.d., after 3 weeks, p=0.04) was found to be 16 mmHg. In data set [2] (Study 2, 200 mg b.i.d., p=0.02), the “Mean BP after one week” value is on record as “significantly lower”. The “decrease in diastolic BP” value in data set [2] (Study 2, 200 mg b.i.d., p=0.08) is “did not reach statistical significance”. In addition, the “alteration in heart rate with BH4” value in data set [2] (Study 2, either group, 100 mg or 200 mg b.i.d.) was “no significant alteration”. The “dose at which the BP-lowering effect was observed” value in data set [2] (oral BH4, free of any changes in heart rate) was at least 200 mg b.i.d. In addition, the “time until reduction in BP was evident” value in data set [2] (oral BH4 therapy) was at most 1 week. Moreover, the adverse events entry in data set [3] is on record as “no significant adverse events”. Further, the “NO-mediated effects on forearm blood flow” value in data set [4] is “augment”.
